Inconclusive results and toxic doses are left out. Rule for the calls: active = survival T/C of 150% or more; inactive = T/C below 125% in these data.
Tested on: P388 leukemia ip, CD2F1 mice, survival T/C
Test: NCI In Vivo Anticancer Drug Screen. Data for tumor model P388 Leukemia (intraperitoneal) in CD2F1 (CDF1) mice
Settings: endpoint: median survival time, higher = longer survival
Procedure, shortened: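 Mice carrying the transplanted tumor received test compound or vehicle. Survival was recorded in each group, and the value is the treated-group measurement divided by that of the vehicle-treated control group.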

Measured: T/C

CCOC(=O)C(c1ccccc1)C(CC=C(C)C)(C(C)=O)C(=O)OC (centres undefined)
inactive: dose: 100.0 mg/kg/injection, schedule: Q04DX002 (ip), vehicle: saline with Tween-80 103 % of control | dose: 200.0 mg/kg/injection, schedule: Q04DX002 (ip), vehicle: saline with Tween-80 103 % of control | dose: 400.0 mg/kg/injection, schedule: Q04DX002 (ip), vehicle: saline with Tween-80 105 % of control

CSc1nc(N)c(N=O)c(N)n1
inactive: dose: 50.0 mg/kg/injection, schedule: Q04DX002 (ip), vehicle: suspension in saline 100 % of control | dose: 100.0 mg/kg/injection, schedule: Q04DX002 (ip), vehicle: suspension in saline 101 % of control | dose: 200.0 mg/kg/injection, schedule: Q04DX002 (ip), vehicle: suspension in saline 104 % of control

O=C(Nc1ccc(Cl)c(Cl)c1)O/N=C/c1ccncc1
inactive: dose: 50.0 mg/kg/injection, schedule: Q01DX009 (ip), vehicle: saline + alcohol 96 % of control | dose: 100.0 mg/kg/injection, schedule: Q01DX009 (ip), vehicle: saline + alcohol 89 % of control | dose: 200.0 mg/kg/injection, schedule: Q01DX009 (ip), vehicle: saline + alcohol 89 % of control

From PubChem BioAssay AID330 (DTP/NCI, 2004)
